What is called EC50 is the concentration at which the effect is half-maximal. A high value points to a less potent agent.

SMILES strings stand for the structures.

For this assay, the system named is monocytic THP1 cells infected with HIV VSV-G pseudotyped GFP-NEF reporter virus. As to the kind of experiment: cells. The class given is cell-based. The conditions noted are these: Human immunodeficiency virus 1, THP-1, 24 h.
The molecule `Cc1cc(/C=C/C#N)cc(C)c1Oc1nc(NC23CC(C#N)(C2)C3)nc2c1C1(C)OCC3(CCC3)CN1C2=O` (centres unmarked) [Example 198, (E)-3-((4′-(4-(2-cyanovinyl)-2,6-dimethylphenoxy)-4b′-methyl-10′-oxo-4b′,10′-dihydro-6′H,8′H-spiro[cyclobutane-1,7′-pyrimido[5′,4′:3,4]pyrrolo[2,1-b][1,3]oxazin]-2′-yl)amino)bicyclo[1.1.1]pentane-1-carbonitrile] came in with an EC50 of 115 nM.
`Cc1cc(/C=C/C#N)cc(C)c1Oc1nc(NC23CC(C#N)(C2)C3)nc2[nH]nc(-c3ccn(C)n3)c12` [Compound 107, (E)-3-((4-(4-(2-cyanovinyl)-2,6-dimethylphenoxy)-3-(1-methyl-1H-pyrazol-3-yl)-1H-pyrazolo[3,4-d]pyrimidin-6-yl)amino)bicyclo[1.1.1]pentane-1-carbonitrile] came in with an EC50 of 443 nM.
In turn, `Cc1cc(/C=C/C#N)cc(C)c1Oc1nc(NC23CC(C#N)(C2)C3)nc2c1C1(C)O[C@@H](CO)CN1C2=O` (stereo partly drawn) [Compound 264, 3-(((6R)-4-(4-((E)-2-cyanovinyl)-2,6-dimethylphenoxy)-6-(hydroxymethyl)-4b-methyl-9-oxo-4b,6,7,9-tetrahydrooxazolo[3′,2′:1,5]pyrrolo[3,4-d]pyrimidin-2-yl)amino)bicyclo[1.1.1]pentane-1-carbonitrile] gave a concentration giving a half-maximal response (EC50) of 118 nM.
Take `Cc1cc(/C=C/C#N)cc(C)c1Oc1nc(NC23CC(C#N)(C2)C3)nc2nc(Nc3ccn(C)n3)[nH]c12` [Compound 48, (E)-3-((6-(4-(2-cyanovinyl)-2,6-dimethylphenoxy)-8-((1-methyl-1H-pyrazol-3-yl)amino)-7H-purin-2-yl)amino)bicyclo[1.1.1]pentane-1-carbonitrile]: the concentration for a half-maximal effect (EC50) is 151 nM. The EC50 values of the last two molecules are within 1.5-fold of each other.
The molecule `Cc1cc(/C=C/C#N)cc(C)c1Oc1nc(NC23CC(C#N)(C2)C3)nc2c(=O)n(C)n(C(F)F)c12` [Compound 292, (E)-3-((7-(4-(2-cyanovinyl)-2,6-dimethylphenoxy)-1-(difluoromethyl)-2-methyl-3-oxo-2,3-dihydro-1H-pyrazolo[4,3-d]pyrimidin-5-yl)amino)bicyclo[1.1.1]pentane-1-carbonitrile] had a concentration giving a half-maximal response (EC50) of 58.8 nM.
Regarding `Cc1cc(/C=C/C#N)cc(C)c1Oc1nc(NC23CC(C#N)(C2)C3)nc2c1[C@H](C(F)(F)F)NC2=O` [Example 247, (R,E)-3-((4-(4-(2-cyanovinyl)-2,6-dimethylphenoxy)-7-oxo-5-(trifluoromethyl)-6,7-dihydro-5H-pyrrolo[3,4-d]pyrimidin-2-yl)amino)bicyclo[1.1.1]pentane-1-carbonitrile], the EC50 stood at 40.2 nM. This EC50 and that of the molecule before are within 1.5-fold of each other.
Under `C=C1c2c(Oc3c(C)cc(/C=C/C#N)cc3C)nc(NC34CC(C#N)(C3)C4)nc2C(=O)N1[C@H]1CC[C@@H](O)C1` [Compound 269, 3-((4-(4-((E)-2-cyanovinyl)-2,6-dimethylphenoxy)-6-((1S,3R)-3-hydroxycyclopentyl)-5-methylene-7-oxo-6,7-dihydro-5H-pyrrolo[3,4-d]pyrimidin-2-yl)amino)bicyclo[1.1.1]pentane-1-carbonitrile] stands 57.3 nM.
In turn, `Cc1cc(/C=C/C#N)cc(C)c1Oc1nc(NC23CC(C#N)(C2)C3)nc2c1[C@]1(C)O[C@@H](C)CN1C2=O` (single isomer, unassigned) [Example 248] registered a concentration giving a half-maximal response (EC50) of 121 nM.
Regarding `Cc1cc(/C=C/C#N)cc(C)c1Oc1nc(NC23CC(C#N)(C2)C3)nc2c1C(C)N(C1CCOCC1)C2=O` (centres unmarked) [Example 215, (E)-3-((4-(4-(2-cyanovinyl)-2,6-dimethylphenoxy)-5-methyl-7-oxo-6-(tetrahydro-2H-pyran-4-yl)-6,7-dihydro-5H-pyrrolo[3,4-d]pyrimidin-2-yl)amino)bicyclo[1.1.1]pentane-1-carbonitrile], the concentration for a half-maximal effect (EC50) is 109 nM.
Turning to `Cc1cc(/C=C/C#N)cc(C)c1Oc1nc(NC23CC(C#N)(C2)C3)nc2nc3n(c12)CC1(CC1)CO3` [Compound 187, (E)-3-((4′-(4-(2-cyanovinyl)-2,6-dimethylphenoxy)-6′H,8′H-spiro[cyclopropane-1,7′-[1,3]oxazino[2,3-f]purin]-2′-yl)amino)bicyclo[1.1.1]pentane-1-carbonitrile], the EC50 came out at 36.5 nM.
Under `Cc1cc(/C=C/C#N)cc(C)c1Oc1nc(NC23CC(C#N)(C2)C3)nc2c1CCC2(F)F` [Compound 79, (E)-3-((4-(4-(2-cyanovinyl)-2,6-dimethylphenoxy)-7,7-difluoro-6,7-dihydro-5H-cyclopenta[d]pyrimidin-2-yl)amino)bicyclo[1.1.1]pentane-1-carbonitrile] stands 33.2 nM.
Molecule `COCCn1cc2c(Oc3c(C)cc(/C=C/C#N)cc3C)nc(NC34CC(C#N)(C3)C4)nc2n1` [Compound 123, 3-[[4-[4-[(E)-2-cyanovinyl]-2,6-dimethyl-phenoxy]-2-(2-methoxyethyl)pyrazolo[3,4-d]pyrimidin-6-yl]amino]bicyclo[1.1.1]pentane-1-carbonitrile] showed a half-maximal effective concentration (EC50) of 59.8 nM.
For the molecule `Cc1cc(/C=C/C#N)cc(C)c1Oc1nc(NC23CC(C#N)(C2)C3)nc2[nH]c(=O)n(C(F)F)c12` [Compound 190, (E)-3-((6-(4-(2-cyanovinyl)-2,6-dimethylphenoxy)-7-(difluoromethyl)-8-oxo-8,9-dihydro-7H-purin-2-yl)amino)bicyclo[1.1.1]pentane-1-carbonitrile], the EC50 was determined as 329 nM. Compared with the last molecule, the EC50 is about 5.5-fold higher.
`Cc1cc(/C=C/C#N)cc(C)c1Oc1nc(NC23CC(C#N)(C2)C3)nc2nc(C(C)O)n(C(F)F)c12` (centres unmarked) [Compound 179, (E)-3-((6-(4-(2-cyanovinyl)-2,6-dimethylphenoxy)-7-(difluoromethyl)-8-(1-hydroxyethyl)-7H-purin-2-yl)amino)bicyclo[1.1.1]pentane-1-carbonitrile] yielded an EC50 of 18.1 nM.
In turn, `Cc1cc(/C=C/C#N)cc(C)c1Oc1nc(NC23CC(C#N)(C2)C3)nc2nc3n(c12)CCOC3` [Compound 195, (E)-3-((4-(4-(2-cyanovinyl)-2,6-dimethylphenoxy)-6,7-dihydro-9H-[1,4]oxazino[3,4-f]purin-2-yl)amino)bicyclo[1.1.1]pentane-1-carbonitrile] yielded a half-maximal effective concentration (EC50) of 37 nM.
With `Cc1cc(/C=C/C#N)cc(C)c1Oc1nc(NC23CC(C#N)(C2)C3)nc2nc(-c3cn[nH]c3)[nH]c12` [Compound 66, (E)-3-((6-(4-(2-cyanovinyl)-2,6-dimethylphenoxy)-8-(1H-pyrazol-4-yl)-7H-purin-2-yl)amino)bicyclo[1.1.1]pentane-1-carbonitrile], the 50% effective concentration (EC50) was found to be 298 nM.
Regarding `CNC(=O)CCn1nc(C)c2c(Oc3c(C)cc(/C=C/C#N)cc3C)nc(NC34CC(C#N)(C3)C4)nc21` [Compound 101, (E)-3-(6-((3-cyanobicyclo[1.1.1]pentan-1-yl)amino)-4-(4-(2-cyanovinyl)-2,6-dimethylphenoxy)-3-methyl-1H-pyrazolo[3,4-d]pyrimidin-1-yl)-N-methylpropanamide], the response was half-maximal at 59.6 nM (EC50).
`Cc1cc(/C=C/C#N)cc(C)c1Oc1nc(NC23CC(C#N)(C2)C3)nc2nc3n(c12)CCCO3` (single isomer, unassigned) [Compound 182, (E)-3-((4-(4-(2-cyanovinyl)-2,6-dimethylphenoxy)-7,8-dihydro-6H-[1,3]oxazino[2,3-f]purin-2-yl)amino)bicyclo[1.1.1]pentane-1-carbonitrile] yielded an EC50 of 34.2 nM. This EC50 is about 1.7-fold lower than that of the molecule before.
The molecule `Cc1cc(/C=C/C#N)cc(C)c1Oc1nc(NC23CC(C#N)(C2)C3)nc2nn(C)c(C(F)F)c12` [Compound 92, (E)-3-((4-(4-(2-cyanovinyl)-2,6-dimethylphenoxy)-3-(difluoromethyl)-2-methyl-2H-pyrazolo[3,4-d]pyrimidin-6-yl)amino)bicyclo[1.1.1]pentane-1-carbonitrile] returned an EC50 of 26.3 nM.
Under `Cc1cc(/C=C/C#N)cc(C)c1Oc1nc(NC23CC(C#N)(C2)C3)nc2nc(C3CCC(F)(F)CC3)[nH]c12` [Compound 54, (E)-3-((6-(4-(2-cyanovinyl)-2,6-dimethylphenoxy)-8-(4,4-difluorocyclohexyl)-7H-purin-2-yl)amino)bicyclo[1.1.1]pentane-1-carbonitrile] stands 364 nM; under `CCNc1nc2nc(NC34CC(C#N)(C3)C4)nc(Oc3c(C)cc(/C=C/C#N)cc3C)c2[nH]1` [Compound 47, (E)-3-((6-(4-(2-cyanovinyl)-2,6-dimethylphenoxy)-8-(ethylamino)-7H-purin-2-yl)amino)bicyclo[1.1.1]pentane-1-carbonitrile], 118 nM.
`CCOC1NC(=O)c2nc(NC34CC(C#N)(C3)C4)nc(Oc3c(C)cc(/C=C/C#N)cc3C)c21` (centres unmarked) [Compound 288, (E)-3-((4-(4-(2-cyanovinyl)-2,6-dimethylphenoxy)-5-ethoxy-7-oxo-6,7-dihydro-5H-pyrrolo[3,4-d]pyrimidin-2-yl)amino)bicyclo[1.1.1]pentane-1-carbonitrile] came in with a concentration giving a half-maximal response (EC50) of 29.8 nM.
Under `Cc1cc(/C=C/C#N)cc(C)c1Oc1nc(NC23CC(C#N)(C2)C3)nc2c1nc(C)n2C(F)F` [Compound 15, (E)-3-((6-(4-(2-cyanovinyl)-2,6-dimethylphenoxy)-9-(difluoromethyl)-8-methyl-9H-purin-2-yl)amino)bicyclo[1.1.1]pentane-1-carbonitrile] stands 109 nM.
Under `Cc1cc(/C=C/C#N)cc(C)c1Oc1nc(NC23CC(C#N)(C2)C3)nc2[nH]nc(C3CC3)c12` [Compound 104, (E)-3-((4-(4-(2-cyanovinyl)-2,6-dimethylphenoxy)-3-cyclopropyl-1H-pyrazolo[3,4-d]pyrimidin-6-yl)amino)bicyclo[1.1.1]pentane-1-carbonitrile] stands 141 nM; under `Cc1cc(/C=C/C#N)cc(C)c1Oc1nc(NC23CC(C#N)(C2)C3)nc2nn(CCC(F)F)c(C)c12` [Compound 102, (E)-3-((4-(4-(2-cyanovinyl)-2,6-dimethylphenoxy)-2-(3,3-difluoropropyl)-3-methyl-2H-pyrazolo[3,4-d]pyrimidin-6-yl)amino)bicyclo[1.1.1]pentane-1-carbonitrile], 22.4 nM.
Take `Cc1cc(/C=C/C#N)cc(C)c1Oc1nc(NC23CC(C#N)(C2)C3)nc2c1C1(C)OCCCN1C2=O` (centres unmarked) [Compound 314, (E)-3-((4-(4-(2-cyanovinyl)-2,6-dimethylphenoxy)-4b-methyl-10-oxo-4b,7,8,10-tetrahydro-6H-pyrimido[5′,4′:3,4]pyrrolo[2,1-b][1,3]oxazin-2-yl)amino)bicyclo[1.1.1]pentane-1-carbonitrile]: the EC50 turned out to be 25.3 nM.

The values above are taken from patent publication US20250333424A1, “ANTIVIRAL COMPOUNDS” (Gilead Sciences, Inc., priority 2024, published 2025).
